Measured values: ChEMBL document CHEMBL2440076, “New triarylpyrazoles as broad-spectrum anticancer agents: design, synthesis, and biological evaluation” (Eur J Med Chem, 2013)

What was measured:
Assay type in all cases: functional
CCRF-CEM = test: Growth inhibition of human CCRF-CEM cells assessed as cell growth at 10^-8 M after 48 hrs by sulforhodamine B assay; settings: read-out: Activity
SNB-19 = test: Growth inhibition of human SNB19 cells assessed as cell growth at 10^-7 M after 48 hrs by sulforhodamine B assay; settings: SNB-19, 48 h, read-out: Activity
A549 = test: Growth inhibition of human A549/ATCC cells assessed as cell growth at 10^-8 M after 48 hrs by sulforhodamine B assay; settings: A549, 48 h, read-out: Activity
RPMI-8226 = test: Growth inhibition of human RPMI8226 cells assessed as cell growth at 10^-5 M after 48 hrs by sulforhodamine B assay; settings: RPMI-8226, 48 h, read-out: Activity
OVCAR-5 = test: Growth inhibition of human OVCAR5 cells assessed as cell growth at 10^-5 M after 48 hrs by sulforhodamine B assay; settings: OVCAR-5, 48 h, read-out: Activity
RXF 393 [1] = test: Growth inhibition of human RXF393 cells assessed as cell growth at 10^-7 M after 48 hrs by sulforhodamine B assay; settings: RXF 393, 48 h, read-out: Activity
NCI-H322M = test: Growth inhibition of human NCI-H322M cells assessed as cell growth at 10^-5 M after 48 hrs by sulforhodamine B assay; settings: read-out: Activity
UACC-257 [2] = test: Growth inhibition of human UACC257 cells assessed as cell growth at 10^-6 M after 48 hrs by sulforhodamine B assay; settings: UACC-257, 48 h, read-out: Activity
OVCAR-4 = test: Growth inhibition of human OVCAR4 cells assessed as cell growth at 10^-6 M after 48 hrs by sulforhodamine B assay; settings: OVCAR-4, 48 h, read-out: Activity
HOP-62 = test: Growth inhibition of human HOP62 cells assessed as cell growth at 10^-4 M after 48 hrs by sulforhodamine B assay; settings: HOP-62, 48 h, read-out: Activity
CAKI-1 = test: Growth inhibition of human CAKI-1 cells assessed as cell growth at 10^-5 M after 48 hrs by sulforhodamine B assay; settings: CAKI-1, 48 h, read-out: Activity
SK-MEL-2 = test: Growth inhibition of human SK-MEL-2 cells assessed as cell growth at 10^-6 M after 48 hrs by sulforhodamine B assay; settings: SK-MEL-2, 48 h, read-out: Activity
LOX IMVI = test: Growth inhibition of human LOXIMVI cells assessed as cell growth at 10^-4 M after 48 hrs by sulforhodamine B assay; settings: read-out: Activity
MDA-MB-435 = test: Growth inhibition of human MDA-MB-435 cells assessed as cell growth at 10^-6 M after 48 hrs by sulforhodamine B assay; settings: MDA-MB-435, 48 h, read-out: Activity
SF-268 = test: Growth inhibition of human SF268 cells assessed as cell growth at 10^-5 M after 48 hrs by sulforhodamine B assay; settings: SF-268, 48 h, read-out: Activity
MDA-MB-468 = test: Growth inhibition of human MDA-MB-468 cells assessed as cell growth at 10^-8 M after 48 hrs by sulforhodamine B assay; settings: MDA-MB-468, 48 h, read-out: Activity
RXF 393 [3] = test: Growth inhibition of human RXF393 cells assessed as cell growth at 10^-5 M after 48 hrs by sulforhodamine B assay; settings: RXF 393, 48 h, read-out: Activity
UACC-257 [4] = test: Growth inhibition of human UACC257 cells assessed as cell growth at 10^-7 M after 48 hrs by sulforhodamine B assay; settings: UACC-257, 48 h, read-out: Activity
OVCAR-8 = test: Growth inhibition of human OVCAR8 cells assessed as cell growth at 10^-4 M after 48 hrs by sulforhodamine B assay; settings: OVCAR-8, 48 h, read-out: Activity
TK-10 = test: Growth inhibition of human TK10 cells assessed as cell growth at 10^-5 M after 48 hrs by sulforhodamine B assay; settings: TK-10, 48 h, read-out: Activity
SF-295 [5] = test: Growth inhibition of human SF295 cells assessed as cell growth at 10^-8 M after 48 hrs by sulforhodamine B assay; settings: SF-295, 48 h, read-out: Activity
BT-549 [6] = test: Growth inhibition of human BT549 cells assessed as cell growth at 10^-6 M after 48 hrs by sulforhodamine B assay; settings: BT-549, 48 h, read-out: Activity
[7] = Growth inhibition of human HCC2998 cells assessed as cell growth at 10^-8 M after 48 hrs by sulforhodamine B assay; settings: HCC 2998, 48 h, read-out: Activity
[8] = Growth inhibition of human Hs 578T cells assessed as cell growth at 10^-5 M after 48 hrs by sulforhodamine B assay; settings: read-out: Activity
M14 = test: Growth inhibition of human M14 cells assessed as cell growth at 10^-7 M after 48 hrs by sulforhodamine B assay; settings: M14, 48 h, read-out: Activity
HCT-15 = test: Growth inhibition of human HCT15 cells assessed as cell growth at 10^-5 M after 48 hrs by sulforhodamine B assay; settings: HCT-15, 48 h, read-out: Activity
SNB-75 = test: Growth inhibition of human SNB75 cells assessed as cell growth at 10^-5 M after 48 hrs by sulforhodamine B assay; settings: SNB-75, 48 h, read-out: Activity
SR [9] = test: Growth inhibition of human SR cells assessed as cell growth at 10^-5 M after 48 hrs by sulforhodamine B assay; settings: read-out: Activity
MCF7 = test: Growth inhibition of human MCF7 cells assessed as cell growth at 10^-4 M after 48 hrs by sulforhodamine B assay; settings: MCF7, 48 h, read-out: Activity
K562 = test: Growth inhibition of human K562 cells assessed as cell growth at 10^-6 M after 48 hrs by sulforhodamine B assay; settings: K562, 48 h, read-out: Activity
BT-549 [10] = test: Growth inhibition of human BT549 cells assessed as cell growth at 10^-7 M after 48 hrs by sulforhodamine B assay; settings: BT-549, 48 h, read-out: Activity
NCI-H23 = test: Growth inhibition of human NCI-H23 cells assessed as cell growth at 10^-8 M after 48 hrs by sulforhodamine B assay; settings: NCI-H23, 48 h, read-out: Activity
BT-549 [11] = test: Growth inhibition of human BT549 cells assessed as cell growth at 10^-8 M after 48 hrs by sulforhodamine B assay; settings: BT-549, 48 h, read-out: Activity
MOLT-4 = test: Growth inhibition of human MOLT4 cells assessed as cell growth at 10^-7 M after 48 hrs by sulforhodamine B assay; settings: MOLT-4, 48 h, read-out: Activity
SR [12] = test: Growth inhibition of human SR cells assessed as cell growth at 10^-6 M after 48 hrs by sulforhodamine B assay; settings: read-out: Activity
A498 = test: Growth inhibition of human A498 cells assessed as cell growth at 10^-8 M after 48 hrs by sulforhodamine B assay; settings: A498, 48 h, read-out: Activity
SF-295 [13] = test: Growth inhibition of human SF295 cells assessed as cell growth at 10^-4 M after 48 hrs by sulforhodamine B assay; settings: SF-295, 48 h, read-out: Activity

`COc1cc(-c2nn(-c3cccc(NC(=O)c4ccccc4)c3)cc2-c2ccncc2)ccc1Cl` showed a growth at 0.01 µM (CCRF-CEM) of 97%, a growth at 0.1 µM (SNB-19) of 97% and a growth at 0.01 µM (A549) of 96%. For the same compound, the growth at 10 µM (RPMI-8226) was 10%, the growth at 10 µM (OVCAR-5) was 59% and the growth at 0.1 µM (RXF 393 [1]) was 113%. The growth at 10 µM (NCI-H322M) was 36%, the growth at 1 µM (UACC-257 [2]) was 47% and the growth at 1 µM (OVCAR-4) was 51%. It also gave a growth at 100 µM (HOP-62) of 31%, a growth at 10 µM (CAKI-1) of 14% and a growth at 1 µM (SK-MEL-2) of 22%. The growth at 100 µM (LOX IMVI) was 7%, the growth at 1 µM (MDA-MB-435) was -28% and the growth at 10 µM (SF-268) was 24%. The growth at 0.01 µM (MDA-MB-468) was 90%, the growth at 10 µM (RXF 393 [3]) was -9% and the growth at 0.1 µM (UACC-257 [4]) was 99%. It also gave a growth at 100 µM (OVCAR-8) of 26%, a growth at 10 µM (TK-10) of 45% and a growth at 0.01 µM (SF-295 [5]) of 93%. It also gave a growth at 1 µM (BT-549 [6]) of 53%, a growth at 0.01 µM [7] of 97% and a growth at 10 µM [8] of 18%. It also gave a growth at 0.1 µM (M14) of 92%, a growth at 10 µM (HCT-15) of 17% and a growth at 10 µM (SNB-75) of 1%. The growth at 10 µM (SR [9]) was 2%, the growth at 100 µM (MCF7) was 7% and the growth at 1 µM (K562) was 21%. The growth at 0.1 µM (BT-549 [10]) was 88%, the growth at 0.01 µM (NCI-H23) was 92% and the growth at 0.01 µM (BT-549 [11]) was 92%. It also gave a growth at 0.1 µM (MOLT-4) of 99%, a growth at 1 µM (SR [12]) of 7% and a growth at 0.01 µM (A498) of 92%. For the same compound, the growth at 100 µM (SF-295 [13]) was -46%.

Compound `COc1cc(-c2nn(-c3cccc(NC(=O)c4ccc(N5CCOCC5)c(C(F)(F)F)c4)c3)cc2-c2ccncc2)ccc1Cl` has a growth at 0.01 µM (CCRF-CEM) of 94%, a growth at 0.1 µM (SNB-19) of 81% and a growth at 0.01 µM (A549) of 94%. It also gave a growth at 10 µM (RPMI-8226) of 6%, a growth at 10 µM (OVCAR-5) of 16% and a growth at 0.1 µM (RXF 393 [1]) of 78%. The growth at 10 µM (NCI-H322M) was 26%, the growth at 1 µM (UACC-257 [2]) was 49% and the growth at 1 µM (OVCAR-4) was 49%. It also gave a growth at 100 µM (HOP-62) of 9%, a growth at 10 µM (CAKI-1) of -2% and a growth at 1 µM (SK-MEL-2) of 24%. The growth at 100 µM (LOX IMVI) was -34%, the growth at 1 µM (MDA-MB-435) was -33% and the growth at 10 µM (SF-268) was 12%. The growth at 0.01 µM (MDA-MB-468) was 95%, the growth at 10 µM (RXF 393 [3]) was -41% and the growth at 0.1 µM (UACC-257 [4]) was 74%. The growth at 100 µM (OVCAR-8) was 1%, the growth at 10 µM (TK-10) was 14% and the growth at 0.01 µM (SF-295 [5]) was 89%. For the same compound, the growth at 1 µM (BT-549 [6]) was 54%, the growth at 0.01 µM [7] was 101% and the growth at 10 µM [8] was 3%. For the same compound, the growth at 0.1 µM (M14) was 76%, the growth at 10 µM (HCT-15) was 7% and the growth at 10 µM (SNB-75) was -13%. For the same compound, the growth at 10 µM (SR [9]) was 4%, the growth at 100 µM (MCF7) was 8% and the growth at 1 µM (K562) was 11%. It also gave a growth at 0.1 µM (BT-549 [10]) of 95%, a growth at 0.01 µM (NCI-H23) of 97% and a growth at 0.01 µM (BT-549 [11]) of 99%. For the same compound, the growth at 0.1 µM (MOLT-4) was 105%, the growth at 1 µM (SR [12]) was 8% and the growth at 0.01 µM (A498) was 90%. It also gave a growth at 100 µM (SF-295 [13]) of -72%.
